Laboratory results published in the CheMixHub ionic liquid set.

Test: xn = mol fraction of the nth substance listed

FC(F)C(F)(F)OCC(F)(F)C(F)(F)C(F)(F)C(F)F + CCCC[N+]1(C)CCCC1.FC(F)(F)C(F)(F)[P-](F)(F)(F)(C(F)(F)C(F)(F)F)C(F)(F)C(F)(F)F
101 kPa
Conditions	electrical conductivity [S/m]	viscosity [mPa·s]
298.1 K, x2 = 0	–	2.5
298.1 K, x2 = 0.12	0.18	–
298.1 K, x2 = 0.191	–	7.43
298.1 K, x2 = 0.194	0.257	–
298.1 K, x2 = 0.272	0.28	–
298.1 K, x2 = 0.363	0.306	–
298.1 K, x2 = 0.454	0.291	–
298.1 K, x2 = 0.456	–	25.4
298.1 K, x2 = 0.564	0.241	–
298.1 K, x2 = 0.694	0.182	65.6
298.1 K, x2 = 0.847	–	117.9
298.1 K, x2 = 0.853	0.161	–
303 K, x2 = 0.12	0.199	–
303 K, x2 = 0.123	–	4.63
303 K, x2 = 0.194	0.29	–
303 K, x2 = 0.269	0.32	–
303 K, x2 = 0.359	0.35	–
303 K, x2 = 0.361	–	14.13
303 K, x2 = 0.457	0.335	–
303 K, x2 = 0.567	0.288	32.7
303 K, x2 = 0.694	0.23	–
303 K, x2 = 0.847	–	91.9
303 K, x2 = 0.85	0.198	–
308.1 K, x2 = 0	–	2.12
308.1 K, x2 = 0.123	0.217	–
308.1 K, x2 = 0.191	0.32	–
308.1 K, x2 = 0.272	0.36	–
308.1 K, x2 = 0.273	–	8.09
308.1 K, x2 = 0.366	0.401	–
308.1 K, x2 = 0.456	–	17.2
308.1 K, x2 = 0.463	0.39	–
308.1 K, x2 = 0.564	0.343	–
308.1 K, x2 = 0.691	0.27	–
308.1 K, x2 = 0.847	0.234	71.6
313 K, x2 = 0.058	–	2.88
313 K, x2 = 0.123	0.239	–
313 K, x2 = 0.197	0.356	–
313 K, x2 = 0.272	0.412	–
313 K, x2 = 0.359	0.449	–
313 K, x2 = 0.361	–	11.01
313 K, x2 = 0.46	0.442	–
313 K, x2 = 0.57	0.387	–
313 K, x2 = 0.691	0.322	–
313 K, x2 = 0.694	–	33.7
313 K, x2 = 0.847	–	60.6
313 K, x2 = 0.85	0.289	–
318.1 K, x2 = 0	–	1.65
318.1 K, x2 = 0.12	–	3.41
318.1 K, x2 = 0.123	0.261	–
318.1 K, x2 = 0.194	0.389	–
318.1 K, x2 = 0.271	0.452	–
318.1 K, x2 = 0.362	0.5	–
318.1 K, x2 = 0.45	0.504	–
318.1 K, x2 = 0.456	–	13.04
318.1 K, x2 = 0.567	0.449	–
318.1 K, x2 = 0.69	0.373	–
318.1 K, x2 = 0.691	–	27.8
318.1 K, x2 = 0.844	–	49.9
318.1 K, x2 = 0.846	0.337	–
323 K, x2 = 0	–	1.52
323 K, x2 = 0.119	0.283	–
323 K, x2 = 0.19	0.43	–
323 K, x2 = 0.195	–	4.04
323 K, x2 = 0.271	0.5	–
323 K, x2 = 0.358	–	7.89
323 K, x2 = 0.359	0.558	–
323 K, x2 = 0.453	0.566	–
323 K, x2 = 0.563	0.508	–
323 K, x2 = 0.567	–	15.44
323 K, x2 = 0.69	0.424	–
323 K, x2 = 0.846	0.392	–
323 K, x2 = 0.848	–	40

N#C[N-]S(=O)(=O)C(F)(F)F.[Li+] + CCCC[N+]1(C)CCCC1.N#C[N-]S(=O)(=O)C(F)(F)F
101 kPa, frequency 0 MHz
Conditions	electrical conductivity [S/m]
303 K, x1 = 0.1	0.295
318 K, x1 = 0.2	0.194
323 K, x1 = 0.05	0.706
323 K, x1 = 0.1	0.558

101 kPa
Conditions	viscosity [mPa·s]
303 K, x1 = 0.1	89.5
318 K, x1 = 0.2	150
323 K, x1 = 0.05	30.3
323 K, x1 = 0.1	43.5
328 K, x1 = 0.1	34.6

O=S(=O)([N-]S(=O)(=O)C(F)(F)F)C(F)(F)F.[Na+] + CCCC[N+]1(C)CCCC1.O=S(=O)([N-]S(=O)(=O)C(F)(F)F)C(F)(F)F
100 kPa, x1 = 0.24
Conditions	electrical conductivity [S/m]
280.2 K	0.013
338.7 K	0.409
347.4 K	0.521
400.6 K	1.83

O=Cc1ccco1 + CCCC[P+](C)(CCCC)CCCC.COS(=O)(=O)[O-]
100 kPa
Conditions	viscosity [mPa·s]
293.15 K, x2 = 0.1	9
293.15 K, x2 = 0.191	41
293.15 K, x2 = 0.624	270
298.15 K, x2 = 0.062	2.33
298.15 K, x2 = 0.1	3.5
303.15 K, x2 = 0.191	6.7
303.15 K, x2 = 0.732	182
308.15 K, x2 = 0.142	4
308.15 K, x2 = 0.317	12.6
308.15 K, x2 = 0.624	58
313.15 K, x2 = 0	1.17
313.15 K, x2 = 0.1	2.6
318.15 K, x2 = 0.062	1.64
318.15 K, x2 = 0.142	3.5
318.15 K, x2 = 0.249	5.7
318.15 K, x2 = 0.499	20.5
323.15 K, x2 = 0.191	4
323.15 K, x2 = 0.249	4.7

CC(C)O + CCCC[n+]1ccn(C)c1.F[B-](F)(F)F
101 kPa, x2 = 0
Conditions	viscosity [mPa·s]
293.15 K	2.42
298.15 K	2.08
303.15 K	1.8
308.15 K	1.56
313.15 K	1.36
318.15 K	1.19
323.15 K	1.05

CCCC[n+]1ccn(C)c1.[Cl-] + CCCC[n+]1ccn(C)c1.F[B-](F)(F)F
Conditions	viscosity [mPa·s]
293 K, 101 kPa, x1 = 0.1015	201

ClC(Cl)Cl + CCCC[n+]1ccn(C)c1.F[B-](F)(F)F
298.15 K, 101 kPa
Conditions	electrical conductivity [S/m]	viscosity [mPa·s]
x1 = 0.1079	0.245	92
x1 = 0.2033	0.29	73
x1 = 0.3071	0.347	55.5
x1 = 0.4018	0.411	40.8
x1 = 0.5052	0.498	27.1
x1 = 0.6091	0.586	16.3
x1 = 0.7028	0.676	9.2
x1 = 0.7825	0.668	5.01
x1 = 0.8491	0.54	2.99

CCCC[n+]1ccn(C)c1.O=S(=O)([O-])C(F)(F)F + CCCC[n+]1ccn(C)c1.F[P-](F)(F)(F)(F)F
100 kPa
Conditions	viscosity [mPa·s]
293.15 K, x2 = 0.006063	91.5
293.15 K, x2 = 0.15	109.5
293.15 K, x2 = 0.1999	116.6
293.15 K, x2 = 0.7	218
298.15 K, x2 = 0.08059	83.4
303.15 K, x2 = 0.08059	69.3
303.15 K, x2 = 0.1	70.8
308.15 K, x2 = 0.15	60
308.15 K, x2 = 0.1999	63.1
313.15 K, x2 = 0.1999	50.6
313.15 K, x2 = 0.5002	66.8
313.15 K, x2 = 0.7995	88.2
318.15 K, x2 = 0.15	40
318.15 K, x2 = 0.1999	41.75
318.15 K, x2 = 0.3	45.51
318.15 K, x2 = 0.8997	76.3
323.15 K, x2 = 0.3	38.24
323.15 K, x2 = 0.8997	62.3
328.15 K, x2 = 0.15	29.81
328.15 K, x2 = 0.1999	30.97

F[P-](F)(F)(F)(F)F.[Li+] + CCCC[n+]1ccn(C)c1.N#C[N-]C#N
electrical conductivity [S/m], 101 kPa
Conditions	x2 = 0.8823	x2 = 0.8953	x2 = 0.9172	x2 = 0.9531	x2 = 0.9799
288.15 K	–	0.307	0.39	0.482	0.585
298.15 K	0.488	0.522	0.633	0.771	0.909
333.15 K	1.63	1.68	1.97	2.24	2.58

CCCCO + CCCC[n+]1ccn(C)c1.N#C[S-]
101 kPa, x1 = 1
Conditions	viscosity [mPa·s]
328.15 K	1.25
348.15 K	0.846

[Cl-].[Li+] + CCCC[n+]1ccn(C)c1.N#C[S-] + CN1CCCC1=O
298.15 K, 101 kPa
Conditions	viscosity [mPa·s]
x2 = 0, x1 = 0.03819	2.63
x2 = 0, x1 = 0.07228	3.56
x2 = 0, x1 = 0.1042	4.958

CCCCO + CCCC[n+]1ccn(C)c1.O=S(=O)([N-]S(=O)(=O)C(F)(F)F)C(F)(F)F
Conditions	viscosity [mPa·s]
298 K, 100 kPa, x2 = 0	2.578

CCCC[n+]1ccn(C)c1.COP(=O)([O-])OC + CCCC[n+]1ccn(C)c1.O=S(=O)([N-]S(=O)(=O)C(F)(F)F)C(F)(F)F
Conditions	viscosity [mPa·s]
288.15 K, 100 kPa, x2 = 0	1455

O=C1CCCO1 + CCCC[n+]1ccn(C)c1.O=S(=O)([N-]S(=O)(=O)C(F)(F)F)C(F)(F)F
100 kPa
Conditions	electrical conductivity [S/m]	viscosity [mPa·s]
293.15 K, x1 = 0.2992	0.457	29.86
293.15 K, x1 = 0.8496	1.39	–
293.15 K, x2 = 0.0151	0.411	–
298.15 K, x1 = 0.5021	0.744	14.84
303.15 K, x1 = 0.2992	0.642	20.99
308.15 K, x1 = 0.5979	1.27	8.18
308.15 K, x1 = 0.7999	1.81	4.12
308.15 K, x1 = 0.8496	1.85	–
308.15 K, x1 = 1	0.001	1.52
313.15 K, x1 = 0.1984	0.753	18.48
313.15 K, x1 = 0.5979	1.45	7.26
313.15 K, x1 = 0.95	1.42	–
313.15 K, x1 = 1	0.001	1.42
313.15 K, x2 = 0.0151	0.542	–
318.15 K, x1 = 0.7999	2.15	3.44
318.15 K, x1 = 0.8496	2.17	–
318.15 K, x1 = 0.8995	2.02	2.35
318.15 K, x1 = 1	0.001	1.35
323.15 K, x1 = 0.7999	2.37	3.11
323.15 K, x1 = 1	0.002	1.3
